Data published in paper PMC6177136, “Hybrid topoisomerase I and HDAC inhibitors as dual action anticancer agents” (PLoS ONE, 2018).

Tests used:
Capan 1 = assay: Cytotoxicity assay (SRB, 72 h) Capan 1; assay type: cell-based, Human; details: Homo sapiens, CAPAN-1, read-out: IC50 ± SD Capan 1
NCI-H460 = assay: Cytotoxicity assay (SRB, 72 h) NCI-H460; assay type: cell-based, Human; details: Homo sapiens, NCI-H460; 72 h, SRB assay; read-out: IC50 ± SD NCI-H460
H2A.X = assay: Western blot, H2A.X induction in NCI-H460 cells; assay type: cell-based, Human; details: 24 h; SAHA 5 μM, SN38 0.05 μM, 3d 0.125–0.2–0.5 μM
Procedure: (§1) The supernatant, containing the total proteins extracts, were transferred in new vials. The protein concentration was measured by Bradford Protein Assay. Equal amounts of proteins for each sample were then resolved by SDS-PAGE and loaded on 10–12% polyacrilamide gels. The proteins were then transferred on nitrocellulose membranes. Molecular weights were estimated based upon the relative migration with molecular weight protein markers.
(§2) The non-specific binding was blocked by incubation of membranes in TBS-tween (25 mM Tris, 150 mM NaCl, 0.1% Tween 20) with 5% nonfat dry milk (BIORAD, Milan) for 60 minutes. Subsequently, the membrane was incubated overnight with primary antibodies: anti-Histone H4 (Millipore, 1:500), anti-acetyl-H4 (Santa Cruz, 1:1000) anti-p21 (Santa Cruz, 1:1000), anti-acetyl-tubulin (abcam, 1:1000), anti-α-tubulin (Sigma, 1:5000), anti β-actin (Sigma, 1:5000) and anti-Topoisomerase 1 (Santa Cruz, 1:500). After three washes with TBST blots were incubated with HRP-coniugated secondary anti-mouse and anti-rabbit (Santa Cruz, 1:5000) 1 hour at room temperature. After three washes with TBST the blots were developed with ECL substrate (GE Healthcare) and chemiluminescence detected by ChemiDoc Imaging System (Biorad). The optical density of the protein bands detected by western blotting was normalized on α -tubulin levels and analyzed by ChemiDoc software (Biorad).
(§3) Cells were lysed in 0.5% NP-40 and 40 μg of total proteins were loaded on NuPAGE 4–12% (Invitrogen), transferred to a nitrocellulose paper and probed with specific antibodies.

p53 = assay: Western blot, p53 in NCI-H460 cells; assay type: cell-based, Human; details: 24 h; SAHA 5 μM, SN38 0.05 μM, 3d 0.125–0.2–0.5 μM
Procedure: as §1, §2, §3

L-428 = assay: Cytotoxicity assay (MTT, 72 h) L-428; assay type: cell-based, Human; details: Homo sapiens, L-428; 72 h, MTT assay; read-out: IC50 ± SD L-428
Procedure: (§4) Human tumor cells were seeded in 96-well cell culture plastic plates, allowed to attach, and exposed to scalar concentrations of the test compounds.

OCI-LY3 = assay: Cytotoxicity assay (MTT, 72 h) OCI-LY3; assay type: cell-based, Human; details: Homo sapiens, OCI-Ly3; 72 h, MTT assay; read-out: IC50 ± SD OCI-LY3
Procedure: as §4

[1] = system: primary malignant pleural mesothelioma (MPM) cell lines; assay: Primary malignant pleural mesothelioma (MPM) cell lines (summary); assay type: cell-based; details: Homo sapiens, span over the cell line panel, 72 h, read-out: IC50 across primary mesothelioma cell lines (Table 7)
CycD1 = assay: Western blot, CycD1 in NCI-H460 cells; assay type: cell-based, Human; details: 24 h; SAHA 5 μM, SN38 0.05 μM, 3d 0.125–0.2–0.5 μM
Procedure: as §1, §2, §3

NCI-H460 NSCLC cells = assay: FACS analysis of cell cycle and apoptosis; assay type: cell-based, Human; details: 72 h at own IC80 dose, PI staining
p21 = assay: Western blot, p21 in NCI-H460 cells; assay type: cell-based, Human; details: 24 h; SAHA 5 μM, SN38 0.05 μM, 3d 0.125–0.2–0.5 μM
Procedure: as §1
as §2, with “software (Biorad). […]” for “software (Biorad).”

RPMI-8226 = assay: Cytotoxicity assay (MTT, 72 h) RPMI-8226; assay type: cell-based; details: Homo sapiens, read-out: IC50 ± SD RPMI-8226
Procedure: as §4

p16 = assay: Western blot, p16 in NCI-H460 cells; assay type: cell-based, Human; details: 24 h; SAHA 5 μM, SN38 0.05 μM, 3d 0.125–0.2–0.5 μM
Procedure: as §1, §2, §3

A2780-Dx = assay: Cytotoxicity assay (SRB, 72 h) A2780-Dx; assay type: cell-based, Human
DU145 = assay: Cytotoxicity assay (SRB, 72 h) DU145; assay type: cell-based, Human; details: Homo sapiens, DU-145, read-out: IC50 ± SD DU145
A431 = assay: Cytotoxicity assay (SRB, 72 h) A431; assay type: cell-based, Human; details: Homo sapiens, A-431, read-out: IC50 ± SD A431
HepG2 = assay: Cytotoxicity assay (SRB, 72 h) HepG2; assay type: cell-based, Human; details: Homo sapiens, HepG2, read-out: IC50 ± SD HepG2
HT29 = assay: Cytotoxicity assay (SRB, 72 h) HT29; assay type: cell-based, Human; details: Homo sapiens, HT-29, read-out: IC50 ± SD HT29
HeLa = assay: Cytotoxicity assay (SRB, 72 h) HeLa; assay type: cell-based, Human; details: Homo sapiens, HeLa, read-out: IC50 ± SD HeLa
A2780 = assay: Cytotoxicity assay (SRB, 72 h) A2780; assay type: cell-based, Human; details: Homo sapiens, A2780, read-out: IC50 ± SD A2780

**Q.** What does the source list for `CC[C@@]1(O)C(=O)OCc2c1cc1n(c2=O)Cc2c-1nc1ccccc1c2C=NOCC(=O)NO` [Compound 3a, Camptothecin-7-yl(methyleneaminooxy)-acetic acid hydroxyamide]?
**A.** IC50 (Capan 1): 0.05 ± 0.006 µM; IC50 (NCI-H460): 0.36 ± 0.1 µM

**Q.** How did the “H2A.X induction (DNA damage)” value (H2A.X) turn out when `O=C(CCCCCCC(=O)Nc1ccccc1)NO` [SAHA, suberoylanilide hydroxamic acid] was run?
**A.** completely ineffective in H2A.X induction

**Q.** What about the p53 activation (p53) of the same compound?
**A.** less effective in p53 up-regulation

**Q.** What about the IC50 (L-428) of the same compound?
**A.** 2.3 ± 0.5 µM

**Q.** What about the IC50 (OCI-LY3) of the same compound?
**A.** 0.99 ± 0.3 µM

**Q.** What about the IC50 [1] of the same compound?
**A.** 4 to 12 µM

**Q.** And the CycD1 regulation (CycD1)?
**A.** up-regulated

**Q.** What about the “G0/1 (%)” value (NCI-H460 NSCLC cells) of the same compound?
**A.** 65.2%

**Q.** And the “G2/M (%)” value (NCI-H460 NSCLC cells)?
**A.** 23.1%

**Q.** What about the “S (%)” value (NCI-H460 NSCLC cells) of the same compound?
**A.** 11.7%

**Q.** And the “Sub-G0/1 (%)” value (NCI-H460 NSCLC cells; apoptosis)?
**A.** 1.8%

**Q.** What about the “expression of p21” value (p21) of the same compound?
**A.** induction of p21

**Q.** What about the IC50 (RPMI-8226) of the same compound?
**A.** 1.98 ± 0.5 µM

**Q.** And the P16 regulation (p16)?
**A.** down

**Q.** Which results are given for `CC[C@@]1(O)C(=O)OCc2c1cc1n(c2=O)Cc2c-1nc1ccccc1c2C=NOCCCCCCC(=O)NO` [Compound 3c, 7-(camptothecin-7-ylmethyleneaminooxy)-heptanoic acid hydroxyamide]?
**A.** RI (Resistance Index) (A2780-Dx; A2780-Dx versus A2780): 1.7; IC50 (A2780-Dx; Homo sapiens, A2780/DX, 72 h, SRB assay, multidrug-resistant ovarian carcinoma, read-out: IC50 ± SD A2780-Dx): 0.065 ± 0.01 µM; IC50 (DU145): 0.029 ± 0.001 µM; IC50 (A431): 0.026 ± 0.001 µM; IC50 (HepG2): 0.68 ± 0.2 µM; IC50 (HT29): 0.045 ± 0.01 µM; IC50 (Capan 1): 0.043 ± 0.003 µM; IC50 (NCI-H460): 0.198 ± 0.18 µM; IC50 (HeLa): 2.4 ± 0.5 µM; IC50 (A2780): 0.038 ± 0.008 µM
